Experimental data as given in patent US5274080A, “Monospecific antibodies useful in evaluating inhibition of polymorphonuclear leukocyte elastase by N-substituted azetidinones” (Merck & Co., Inc., priority 1991, dated 1993).

Test system: antibody R674
Test: Radioimmune assay: displacement of tritium labeled reactivation product from antibody R674
Assay type: binding, rabbit
Settings: up to 10 μM (the highest concentration tested)
Protocol: Non-antibody-bound radioactive isotope was removed from the reaction mixture by its absorption onto dextran-coated activated charcoal. […] The activated charcoal was then suspended to 3% (w/v) in PBS dextran and allowed to stand overnight, washed once again in PBS dextran and resuspended to 3% (w/v) in PBS dextran and stored at 4° C. Immediately before use in the assay, the dextran-coated activated charcoal was diluted 10-fold in DULBECCO's PBS and 1 ml was added to each assay tube. […] The supernatant fluid was decanted into 9 ml of AQUASOL-2 scintillation fluid and radioactivity counted in a beta-counter. Each assay contains charcoal free controls, to which 1 ml PBS was added, for determination of total counts (BO), and antibody free controls for determination of non-specific binding. Percent specific binding was determined by subtracting the value for non-specific binding from the value of total antiserum binding and then dividing by the total radioactivity added.
Sensitivity of the antisera R674 (2nd bleed) was determined in the above RIA. The antiserum was diluted in PET/GEL buffer (1:12,000 final dilution in the 200 μl assay volume) as described above so that it binds 20-30% of the total radioactivity added. The same diluted stock was then used for all assay tubes within the same assay. […] The assay was set up on a competition basis. […]

Structure (SMILES)	effect on displacement
NC(N)=O [Urea]	without effect
N=C(N)NCCC[C@H](N)C(=O)O [arginine]	without effect
